These results are taken from ChEMBL document CHEMBL5344433, “Target Separation and Potential Anticancer Activity of Withanolide-Based Glucose Transporter Protein 1 Inhibitors from Physalis angulata var. villosa” (J Nat Prod, 2024).

In data set [1] the target is T1, Solute carrier family 2, facilitated glucose transporter member 1 (Homo sapiens) (UniProt P11166).
T1 sequence (whole entry): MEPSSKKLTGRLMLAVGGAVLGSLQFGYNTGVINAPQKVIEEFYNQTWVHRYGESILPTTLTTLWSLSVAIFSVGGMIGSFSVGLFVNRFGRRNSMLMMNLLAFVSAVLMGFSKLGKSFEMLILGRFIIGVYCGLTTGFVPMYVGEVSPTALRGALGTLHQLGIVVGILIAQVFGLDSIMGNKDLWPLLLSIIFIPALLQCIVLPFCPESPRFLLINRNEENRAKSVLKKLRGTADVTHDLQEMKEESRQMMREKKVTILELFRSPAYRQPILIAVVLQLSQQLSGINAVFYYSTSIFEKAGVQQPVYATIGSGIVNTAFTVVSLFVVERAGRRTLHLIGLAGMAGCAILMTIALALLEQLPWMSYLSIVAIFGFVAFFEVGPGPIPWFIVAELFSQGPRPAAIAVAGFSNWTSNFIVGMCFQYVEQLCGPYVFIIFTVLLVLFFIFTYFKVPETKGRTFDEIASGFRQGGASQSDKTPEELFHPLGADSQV
In words: Agonist activity at GLUTI (unknown origin). The following applies: filed as agonist.

Data set [2] deals with T1, Solute carrier family 2, facilitated glucose transporter member 1 (Homo sapiens). In words: Inhibition of GLUT1 in human MCF7 cells assessed as reduction in GLUT1 degradation by CETSA assay. The format is cell-based.
For data set [3], the system named is MCF7. In words: Induction of apoptosis in human MCF7 cells assessed as late apoptotic cells at 5 uM incubated for 24 hrs by Annexin V-FITC/7AAD staining based flow cytometery (reference value: 0.68%). The format is functional. For orientation: Flow cytometry measures light scatter and fluorescence of single cells or particles in a stream.
Data set [4] addresses T1, Solute carrier family 2, facilitated glucose transporter member 1 (Homo sapiens). Kind of data set: Inhibition of GLUT1 in human MCF7 cells assessed as decrease in extracellular acidification rate at 5 to 20 uM measured for 24 hrs by Seahorse XFe96 analyzer. It is filed as cell-based. The following applies: dose 5-20 µM.
For data set [5] the target is unchanged. In words: Inhibition of human GLUT1 in HEK293FT cells assessed as reduction in glucose uptake at 10 uM incubated for 24 hrs and further incubated for 1 hr under dark condition by flow cytometry. It is filed as cell-based. The following applies: time 25.0 hrs.
For data set [6], the system named is MCF7. Kind of data set: Induction of cell cycle arrest in human MCF7 cells assessed as accumulation of cells at G2/M phase at 5 uM by propidium iodide staining based flow cytometry (reference value: 9.72%). The following applies: time 30 min, 0.5 h. The format is functional.
Data set [7] concerns MCF7. In words: Induction of apoptosis in human MCF7 cells assessed as viable cells at 10 uM incubated for 24 hrs by Annexin V-FITC/7AAD staining based flow cytometery (reference value: 98.8%). The following applies: read-out: Activity. The format is functional.
Data set [8] has as its target T1, Solute carrier family 2, facilitated glucose transporter member 1 (Homo sapiens). Kind of data set: Inhibition of GLUT1 in human MCF7 cells assessed as fold change at 5 uM by Western blot analysis. It is filed as cell-based. In general terms: Immunoblotting shows a protein as a band on a membrane.
Data set [9] has as its target T2, Solute carrier family 2, facilitated glucose transporter member 1 (Homo sapiens, UniProt P11166).
T2 sequence (P11166 whole entry): T1 sequence (whole entry)
Kind of data set: Inhibition of GLUT1 in human MCF7 cells assessed as ATP production incubated for 24 hrs in presence of 10 mM glucose. The format is cell-based.

Data set [10] concerns MCF7. Kind of data set: Anticancer activity against human MCF7 cells assessed as increase in cell apoptosis at 20 uM incubated for 48 hrs relative to control. It is filed as functional.
In data set [11] the test system is MCF7. Kind of data set: Induction of cell cycle arrest in human MCF7 cells assessed as accumulation of cells at G2/M phase at 10 uM by propidium iodide staining based flow cytometry (reference value: 9.72%). The following applies: time 30 min, 0.5 h. It is filed as functional.
For data set [12], the system named is MCF7. Kind of data set: Induction of apoptosis in human MCF7 cells assessed as early apoptotic cells at 10 uM incubated for 24 hrs by Annexin V-FITC/7AAD staining based flow cytometery (reference value: 0.50%). It is filed as functional.
Data set [13] deals with T2, Solute carrier family 2, facilitated glucose transporter member 1. Kind of data set: Inhibition of GLUT1 in human MCF7 cells assessed as ATP production incubated for 24 hrs in presence of 0.1 mM glucose. The format is cell-based.
Data set [14] concerns the target T1, Solute carrier family 2, facilitated glucose transporter member 1 (Homo sapiens). In words: Inhibition of GLUT1 in human MCF7 cells assessed as reduction in lactate production measured after 24 hrs. The format is cell-based. The following applies: dose 5-20 µM.
Data set [15] shares this target. In words: Inhibition of GLUT1 in human MCF7 cells assessed as fold change at 20 uM by Western blot analysis. It is filed as cell-based.
For data set [16], the system named is MCF7. In words: Induction of apoptosis in human MCF7 cells assessed as necrotic cells at 5 uM incubated for 24 hrs by Annexin V-FITC/7AAD staining based flow cytometery (reference value: 0.019%). The format is functional.
The subject of data set [17] is MCF7. Kind of data set: Induction of oxidative stress in human MCF7 cells assessed as increase in intracellular ROS level at 5 to 20 uM incubated for 24 hrs. It is filed as functional, cell-based. The following applies: dose 5-20 µM.
For data set [18], the system named is MCF7. Kind of data set: Induction of cell cycle arrest in human MCF7 cells assessed as accumulation of cells at G2/M phase at 20 uM by propidium iodide staining based flow cytometry (reference value: 9.72%). The format is functional. The following applies: time 30 min, 0.5 h.
The target of data set [19] is T2, Solute carrier family 2, facilitated glucose transporter member 1. Kind of data set: Binding affinity to GLUT1 (unknown origin) assessed as dissociation constant at 800 uM by MST assay.
Data set [20] has as its system MCF7. Kind of data set: Induction of oxidative stress in human MCF7 cells assessed as fold increase in intracellular ROS level at 20 uM incubated for 24 hrs. It is filed as functional.
Data set [21] has as its system MCF7. In words: Induction of apoptosis in human MCF7 cells assessed as viable cells at 5 uM incubated for 24 hrs by Annexin V-FITC/7AAD staining based flow cytometery (reference value: 98.8%). It is filed as functional. The following applies: read-out: Activity.
Data set [22] deals with MCF7. Kind of data set: Induction of apoptosis in human MCF7 cells assessed as late apoptotic cells at 10 uM incubated for 24 hrs by Annexin V-FITC/7AAD staining based flow cytometery (reference value: 0.68%). The format is functional.
Data set [23] deals with MCF7. In words: Induction of apoptosis in human MCF7 cells assessed as early apoptotic cells at 20 uM incubated for 24 hrs by Annexin V-FITC/7AAD staining based flow cytometery (reference value: 0.50%). The format is functional.
Data set [24] can be described thus: Cytotoxicity against human MCF7 cells assessed as reduction in cell viability incubated for 24 hrs by MTT assay. The format is toxicity, cell-based. For orientation: Tetrazolium dyes change colour on reduction, which living cells bring about.
Data set [25] concerns MCF7. Kind of data set: Induction of apoptosis in human MCF7 cells assessed as necrotic cells at 10 uM incubated for 24 hrs by Annexin V-FITC/7AAD staining based flow cytometery (reference value: 0.019%). It is filed as functional.
Data set [26] deals with MCF7. In words: Induction of apoptosis in human MCF7 cells assessed as viable cells at 20 uM incubated for 24 hrs by Annexin V-FITC/7AAD staining based flow cytometery (reference value: 98.8%). It is filed as functional. The following applies: read-out: Activity.
The target in data set [27] is T1, Solute carrier family 2, facilitated glucose transporter member 1 (Homo sapiens). Kind of data set: Inhibition of GLUT1 in human MCF7 cells assessed as reduction in maximal respiratory capacity at 5 to 20 uM incubated for 24 hrs by Seahorse XFe96 analyzer. The format is cell-based. The following applies: dose 5-20 µM.
In data set [28] the test system is MCF7. In words: Induction of apoptosis in human MCF7 cells assessed as late apoptotic cells at 20 uM incubated for 24 hrs by Annexin V-FITC/7AAD staining based flow cytometery (reference value: 0.68%). The format is functional.
The test system of data set [29] is MCF7. In words: Induction of apoptosis in human MCF7 cells assessed as early apoptotic cells at 5 uM incubated for 24 hrs by Annexin V-FITC/7AAD staining based flow cytometery (reference value: 0.50%). It is filed as functional.
Data set [30] has as its system MCF7. In words: Induction of apoptosis in human MCF7 cells assessed as necrotic cells at 20 uM incubated for 24 hrs by Annexin V-FITC/7AAD staining based flow cytometery (reference value: 0.019%). The format is functional.
The subject of data set [31] is MCF7. In words: Anticancer activity against human MCF7 cells assessed as increase in cell necrosis at 20 uM incubated for 48 hrs relative to control. The format is functional.
For data set [32], the target named is T1, Solute carrier family 2, facilitated glucose transporter member 1 (Homo sapiens). Kind of data set: Inhibition of GLUT1 in human MCF7 cells assessed as fold change at 10 uM by Western blot analysis. The format is cell-based.
Data set [33] has the same target. In words: Inhibition of GLUTI (unknown origin).

Structures are written as SMILES. Activity calls are given as the source filed them. The calls are words filed in the database; no cut-off is given here.

Regarding `CC(=O)O[C@H]1C[C@@](O)([C@H](C)[C@H]2CC(C)=C(C)C(=O)O2)[C@@]2(C)CC[C@H]3[C@@H](C[C@H]4O[C@]45[C@@H](O)C=CC(=O)[C@]35C)[C@@]12O`, in [1], the result was Active.

`C[C@@]12C[C@H]3OC(=O)[C@@H]1CO[C@]14O[C@@]5([C@H]2C1=O)[C@@]3(C)OC(=O)[C@@]5(O)CC[C@H]1[C@H]4C[C@H]2O[C@]23CC=CC(=O)[C@]13C`: the outcome in data set [1] was Active.

In general, IC50 refers to the concentration needed to halve the response being measured. In general, Kd refers to the constant that tells how readily two partners part at equilibrium. Take `CC(=O)O[C@H]1[C@@H]2O[C@]2([C@H](C)[C@H]2CC(CO)=C(C)C(=O)O2)[C@@]2(C)CCC3C(C[C@@H](O)[C@@]4(O)CC=CC(=O)[C@]34C)[C@@]12O` (some centres not stated): the inhibition result in data set [2], in data set [4], in data set [5] and in data set [27] was “Active” throughout. In addition, the Activity was determined as 15% in data set [3]; 11.3% in data set [6]; 15% in data set [10]; 22% in [11]; 14.1% in [12]; 3.84% in data set [16]. Also, the Activity entry was “Dose-Dependent Effect” in data set [17]; 47.6% in data set [18]; 46.7% in data set [22]; 14.9% in data set [23]; 4.56% in data set [25]; 60% in data set [28]. The Activity in data set [29] came to 5.76%; in data set [30], 0.92%; in data set [31], 60%. Moreover, the viability at 10 µM in data set [7] came to 34.6%. Besides, the fold change (FC) in data set [8] was determined as 0.68; in data set [15], 0.4; in data set [20], 2.8; in data set [32], 0.44. The IC50 in data set [9] turned out to be 180 µM; in [13], 3.46 µM. Besides, the inhibition entry in data set [14] was “Dose-Dependent Effect”. In data set [19], the Kd worked out at 2.6 µM. The viability at 5 µM in data set [21] was 75.4%. In addition, the IC50 at 24 h in [24] worked out at 18 µM. Further, the viability at 20 µM in data set [26] is 24.2%.

Take `CC(=O)O[C@H]1C[C@@](O)([C@H](C)[C@H]2CC(C)=C(C)C(=O)O2)[C@@]2(C)CC[C@H]3[C@@H](C[C@H]4O[C@]45CC=CC(=O)[C@]35C)[C@@]12O`: the inhibition entry in data set [2] is “Active”. Moreover, the outcome in data set [1] was Active. Besides, the Kd in data set [19] was 2.6 µM.

For the compound `CC(=O)O[C@H]1C=C([C@H](C)[C@H]2CC(C)=C(C)C(=O)O2)[C@@]2(C)CC[C@H]3C(C[C@@H](O)[C@@]4(Cl)CC=CC(=O)[C@]34C)[C@]12O` (some centres not stated), the inhibition result in data set [33] is “Active”.

Regarding `CC(=O)O[C@H]1C[C@H]([C@H](C)[C@@H]2OC(=O)C(C)=C(C)[C@@H]2O)[C@@]2(C)CCC3C(C[C@@H](O)[C@@]4(O)CC=CC(=O)[C@]34C)[C@@]12O` (some centres not stated), the inhibition result in data set [2] and in data set [33] was “Active” in each case. Further, the result in data set [1] was Active. Further, in data set [19], the Kd was found to be 2.4 µM.

Turning to `CC(=O)O[C@H]1C=C([C@H](C)[C@H]2CC(C)=C(C)C(=O)O2)[C@@]2(C)CC[C@H]3[C@@H](C[C@H]4O[C@]45[C@@H](O)C=CC(=O)[C@]35C)[C@@]12O`, the outcome in data set [1] was Active.
